Values of other authors, collected in patent publication US8147876B2, “Medical agent for preventing or treating diseases resulting from one of inflammation and remodeling, and method for preventing or treating the diseases” (National University Corporation Tokyo Medical and Dental …, priority 2007, dated 2012).

System: VCAM-1
Conditions: human tracheal smooth muscle cells, J Cell Physiol. 2006

SMILES: COc1cc(/C=C/C(=O)CC(=O)/C=C/c2ccc(O)c(OC)c2)ccc1O [Curcumin]
- TNFα-induced VCAM-1 expression: inhibit
